US7718653B2, “Pyrimidine derivatives for inhibiting Eph receptors” (AstraZeneca AB, priority 2007, dated 2010)
Like-named read-outs stand apart in the source and are kept apart here.

Assays:
recombinant EphB4 = target: T1, recombinant EphB4 (Homo sapiens, UniProt P54760); assay: In vitro EphB4 enzyme assay (Alphascreen, phosphorylation of biotin-poly-GAT); format: biochemical; conditions: * = tested once only, read-out: EphB4 enzyme assay Mean IC50 value
T1 construct: amino acids 563-987; Swiss-Prot Acc; No. P54760; purchased ProQinase GmbH 0178-0000-3
T1 sequence (P54760 563-987): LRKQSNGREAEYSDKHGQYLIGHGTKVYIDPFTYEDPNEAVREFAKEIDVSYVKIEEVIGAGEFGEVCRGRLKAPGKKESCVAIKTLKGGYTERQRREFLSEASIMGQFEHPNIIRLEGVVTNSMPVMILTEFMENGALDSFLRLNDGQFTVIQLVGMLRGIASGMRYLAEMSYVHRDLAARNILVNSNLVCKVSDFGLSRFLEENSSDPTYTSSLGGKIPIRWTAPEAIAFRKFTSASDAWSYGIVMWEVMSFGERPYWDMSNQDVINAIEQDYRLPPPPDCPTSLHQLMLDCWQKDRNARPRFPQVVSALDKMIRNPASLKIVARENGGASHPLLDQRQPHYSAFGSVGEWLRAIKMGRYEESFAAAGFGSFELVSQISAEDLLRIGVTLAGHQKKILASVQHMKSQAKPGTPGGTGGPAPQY
Procedure: A) In vitro EphB4 Enzyme Assay
(§1) This assay detects inhibitors of EphB4-mediated phosphorylation of a polypeptide substrate using Alphascreen™ luminescence detection technology. Briefly, recombinant EphB4 was incubated with a biotinylated-polypeptide substrate (biotin-poly-GAT) in presence of magnesium-ATP. The reaction was stopped by addition of EDTA, together with streptavidin-coated donor beads which bind the biotin-substrate containing any phosphorylated tyrosine residues. Anti-phosphotyrosine antibodies present on acceptor beads bind to phosphorylated substrate, thus bringing the donor & acceptor beads into close proximity. Subsequent excitation of the donor beads at 680 nm generated singlet oxygen species that interact with a chemiluminescer on the acceptor beads, leading to light emission at 520-620 nm. The signal intensity is directly proportional to the level of substrate phosphorylation and thus inhibition is measured by a decrease in signal.
Aqueous Compound Preparation:
Acoustic Compound Preparation:
To ensure that each well contained a total of 120 nl DMSO the wells were all backfilled as required. […] The test range of compounds was 100× the required final concentration.
Assay plates were then incubated at room temperature for 1 hour.
For assays using compounds prepared via acoustic dispensing, the assay mix was adjusted such that the final assay volume of 12 ul contained the same concentration of reagent as 10 ul of assay mix used when aqueous compounds were tested.
The plates were sealed under natural lighting conditions, wrapped in aluminium foil and incubated in the dark for a further 20 hours.
The resulting assay signal was determined on the Perkin Elmer EnVision plate reader. The minimum value was subtracted from all values, and the signal plotted against compound concentration to generate IC50 data. The method used to generate the compound dilutions was recorded with the IC50 value in the database.

recombinant EphA2 = target: T2, recombinant EphA2 (Homo sapiens, UniProt P29317); assay: In vitro EphA2 enzyme assay (Alphascreen, phosphorylation of biotin-poly-GAT); format: biochemical
T2 construct: amino acids 591-976; Swiss-Prot Acc; No. P29317; purchased ProQinase GmbH 0368-0000-1
T2 sequence (P29317 591-976): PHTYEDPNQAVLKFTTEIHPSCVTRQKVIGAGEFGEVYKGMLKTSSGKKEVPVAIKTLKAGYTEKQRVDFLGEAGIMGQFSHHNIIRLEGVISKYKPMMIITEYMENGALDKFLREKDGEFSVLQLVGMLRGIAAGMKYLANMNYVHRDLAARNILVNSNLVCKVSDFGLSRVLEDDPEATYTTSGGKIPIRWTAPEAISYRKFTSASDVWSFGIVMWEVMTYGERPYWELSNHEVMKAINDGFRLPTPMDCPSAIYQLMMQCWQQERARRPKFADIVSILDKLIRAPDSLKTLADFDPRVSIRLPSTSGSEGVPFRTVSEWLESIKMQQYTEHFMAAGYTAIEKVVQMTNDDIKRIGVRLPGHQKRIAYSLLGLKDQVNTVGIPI
Procedure: C) In vitro EphA2 Enzyme Assay
as §1, with “EphA2-mediated” for “EphB4-mediated”, “EphA2” for “EphB4”
Test compounds were prepared as 10 mM stock solutions in DMSO (Sigma-Aldrich Company Ltd, Gillingham, Dorset SP8 4XT Catalogue No. 154938) and serially diluted with 5% DMSO to give a range of test concentrations at 6× the required final concentration. […]
The resulting assay signal was determined on the Perkin Elmer EnVision plate reader. […]

[1] = Method of compound preparation: Genesis (aqueous compound preparation)
[2] = Method of compound preparation: Echo (acoustic dispensing)

Row | Structure (SMILES) | IC50 (recombinant EphB4; [1]) | IC50 (recombinant EphB4; [2]) | IC50 (recombinant EphA2)
1 | Clc1ccc2c(c1Nc1ccnc(Nc3cc(N4CCOCC4)nc(N4CCOCC4)c3)n1)OCO2 [Example 1, N4-(5-chlorobenzo[d][1,3]dioxol-4-yl)-N2-(2,6-dimorpholinopyridin-4-yl)pyrimidine-2,4-diamine] | 501 nM |  | 
2 | CN(c1ccnc(Nc2cc(N3CCOCC3)nc(N3CCOCC3)c2)n1)c1c(Cl)ccc2c1OCO2 [Example 2, N4-(5-chlorobenzo[d][1,3]dioxol-4-yl)-N2-(2,6-dimorpholinopyridin-4-yl)-N4-methylpyrimidine-2,4-diamine] | 605 nM |  | 
3 | CN(c1ccnc(Nc2cc(Cl)cc(N3CCOCC3)n2)n1)c1cccc2[nH]ncc12 [Example 6, N-(4-chloro-6-morpholin-4-yl-pyridin-2-yl)-N′-(1H-indazol-4-yl)-N′-methyl-pyrimidine-2,4-diamine] | 973 nM | 7 nM | 
4 | Clc1ccc2c(c1Nc1ccnc(Nc3cccc(N4CCOCC4)n3)n1)OCO2 [Example 10, N′-(5-chloro-1,3-benzodioxol-4-yl)-N-(6-morpholino-2-pyridyl)pyrimidine-2,4-diamine] | 817 nM | 64 nM | 566 nM
5 | Cc1nc(Nc2nccc(Nc3c(Cl)ccc4c3OCO4)n2)cc(N2CCN(C)CC2)n1 [Example 12, N′-(5-chloro-1,3-benzodioxol-4-yl)-N-[2-methyl-6-(4-methylpiperazin-1-yl)pyrimidin-4-yl]pyrimidine-2,4-diamine] | 6440 nM |  | 

Compounds with a lower IC50 (recombinant EphB4; [1]), results first:

Row | IC50 (recombinant EphB4; [1]) | IC50 (recombinant EphB4; [2]) | IC50 (recombinant EphA2) | Structure (SMILES)
6 | 146 nM | 3 nM |  | CN(c1ccnc(Nc2ccnc(N3CCOCC3)c2)n1)c1cccc2[nH]ncc12 [Example 4, N′-(1H-indazol-4-yl)-N′-methyl-N-(2-morpholin-4-ylpyridin-4-yl)pyrimidine-2,4-diamine]
7 | 445 nM | 4 nM |  | CN(c1ccnc(Nc2cc(Cl)nc(N3CCOCC3)c2)n1)c1cccc2[nH]ncc12 [Example 8, N-(2-chloro-6-morpholin-4-yl-pyridin-4-yl)-N′-(1H-indazol-4-yl)-N′-methyl-pyrimidine-2,4-diamine]
8 | 170 nM | 52 nM | 131 nM | Clc1ccc2c(c1Nc1ccnc(Nc3cc(N4CCOCC4)ccn3)n1)OCO2 [Example 9, N′-(5-chloro-1,3-benzodioxol-4-yl)-N-(4-morpholino-2-2pyridyl)pyrimidine-2,4-diamine]
